Results from ChEMBL document CHEMBL3763075, “Evaluation of phenylcyclopropylamine compounds by enzymatic assay of lysine-specific demethylase 2 in the presence of NPAC peptide” (Bioorg Med Chem Lett, 2016).

target: T1, Lysine-specific histone demethylase 2 (Homo sapiens, UniProt Q8NB78)
T1 sequence (Q8NB78 whole entry): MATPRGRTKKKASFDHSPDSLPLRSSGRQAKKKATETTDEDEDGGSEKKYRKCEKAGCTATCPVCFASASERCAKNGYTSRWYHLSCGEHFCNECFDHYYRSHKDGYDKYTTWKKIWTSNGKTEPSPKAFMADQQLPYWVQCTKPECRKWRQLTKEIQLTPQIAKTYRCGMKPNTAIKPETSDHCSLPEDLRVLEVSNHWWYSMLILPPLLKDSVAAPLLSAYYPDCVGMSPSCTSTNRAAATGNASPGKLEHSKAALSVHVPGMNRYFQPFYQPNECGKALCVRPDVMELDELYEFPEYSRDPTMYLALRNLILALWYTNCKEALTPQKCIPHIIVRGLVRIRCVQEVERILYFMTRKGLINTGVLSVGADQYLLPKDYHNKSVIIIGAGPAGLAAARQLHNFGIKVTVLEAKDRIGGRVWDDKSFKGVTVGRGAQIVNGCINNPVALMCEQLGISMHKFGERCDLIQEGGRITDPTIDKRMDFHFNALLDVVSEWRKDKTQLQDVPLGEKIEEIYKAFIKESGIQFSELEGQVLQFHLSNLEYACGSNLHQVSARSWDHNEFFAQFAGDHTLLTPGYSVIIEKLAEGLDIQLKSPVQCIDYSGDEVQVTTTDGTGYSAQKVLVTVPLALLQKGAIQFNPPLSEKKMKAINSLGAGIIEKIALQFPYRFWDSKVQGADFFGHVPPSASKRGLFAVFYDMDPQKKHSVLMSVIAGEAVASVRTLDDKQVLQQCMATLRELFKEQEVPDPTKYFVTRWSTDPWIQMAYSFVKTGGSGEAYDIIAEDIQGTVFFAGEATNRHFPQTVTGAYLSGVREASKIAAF
Description: Inhibition of recombinant human LSD2 using H3K4 peptide as substrate assessed as decrease in H3K4 demethylation after 1 hr by mass spectroscopic analysis

| SMILES | IC50 [µM] |
| --- | --- |
| O=C(N[C@@H](CCCCNC1CC1c1ccccc1)C(=O)NCc1ccc(Cl)cc1)c1ccc(-c2ccccc2)cc1 (stereo partly drawn) | 250 |
| O=C(N[C@@H](CCCCNC1CC1c1ccccc1)C(=O)NCc1cccc(C(F)(F)F)c1)c1ccc(-c2ccccc2)cc1 (stereo partly drawn) | > 540 |
| O=C(N[C@@H](CCCCNC1CC1c1ccccc1)C(=O)NCc1ccccc1)c1ccc(-c2ccccc2)cc1 (stereo partly drawn) | 230 |
